Experimental findings from article PMC13249053, “Mechanism of auranofin toxicity: Inhibition of tetrahydrobiopterin metabolism” (Toxicology and applied pharmacology, 2025) are described below.

One data set deals with cells. The data set is described as follows: Cell viability (alamarBlue) following drug treatments. As to conditions: cells pretreated with auranofin and/or methotrexate for 2 h, then sepiapterin 3 h. (Alamar Blue is a resazurin reagent that responds to reducing activity.)
The next data set deals with SPR (Homo sapiens, UniProt P35270). The data set is described as follows: Cellular SPR activity: BH2 formation from sepiapterin in the presence of methotrexate, human cell lines. Type of data set: cell-based. The arrangement: endogenous in cells; host or cells: HaCaT, Jurkat, BeWo, SKNMC, CX-1.
SPR, sequence (P35270 whole entry): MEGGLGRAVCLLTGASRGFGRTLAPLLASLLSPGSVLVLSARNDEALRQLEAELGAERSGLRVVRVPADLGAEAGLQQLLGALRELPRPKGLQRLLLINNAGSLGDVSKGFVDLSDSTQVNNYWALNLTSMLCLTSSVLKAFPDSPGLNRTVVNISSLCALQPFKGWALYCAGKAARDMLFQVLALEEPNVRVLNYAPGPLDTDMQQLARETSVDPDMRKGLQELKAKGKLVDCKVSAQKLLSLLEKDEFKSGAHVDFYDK
The target of the next data set is T1, DHFR (Rattus norvegicus, UniProt Q920D2).
T1 construct: endogenous in cells; host or cells: PC12
T1 sequence (Q920D2 1-187): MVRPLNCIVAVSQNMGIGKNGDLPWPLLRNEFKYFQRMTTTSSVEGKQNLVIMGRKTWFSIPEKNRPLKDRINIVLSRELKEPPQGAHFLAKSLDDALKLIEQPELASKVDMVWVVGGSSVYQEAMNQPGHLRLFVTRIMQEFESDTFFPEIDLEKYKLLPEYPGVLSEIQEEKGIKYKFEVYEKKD
The data set is described as follows: Cellular DHFR activity: BH4 formation from BH2, PC12 cells. Type of data set: cell-based. The following applies: PC12 (rat pheochromocytoma). How it is done:
(§1) The growth medium was then removed and the cells incubated with growth medium containing 100 μM sepiapterin. […] BH2 and BH4 were then analyzed on a Jasco high-performance liquid chromatography system (Easton, MD) fitted with a Maxsil-10 C18 column (250 × 4 mm; Phenomenex, Torrance, CA). […] Cell viability following drug treatments was greater than 95 %.

Data set [1] concerns catecholamine and monoamine production in PC12 cells. Kind of data set: Catecholamine and monoamine production in PC12 cells (HPLC, electrochemical detection). The class given is cell-based, rat. The following applies: auranofin 0.04–2.5 μM. How it is done:
Catecholamine and monoamine production in PC12 cells were assayed as previously described ([Yang et al., 2015]). Briefly, cells grown in 10-cm culture dishes were treated in the absence or presence of auranofin (0.04–2.5 μM) in 10 ml of growth medium without FBS. After 24 h, the cells were removed from the plates, washed with phosphate-buffered saline, and centrifuged (1500 g, 10 min). Cell pellets (~8 × 10^6 cells) were resuspended in 1 ml of 0.1 N perchloric acid containing 200 μM EDTA and 350 μM sodium metabisulfite and sonicated on ice. Ly-sates were centrifuged (20,000 g, 10 min) and clear supernatants filtered using 0.22-μm filters. Extracts were then analyzed for neurotransmitters and their metabolites using a Waters 2695 high-performance liquid chromatography system (Waters Corp., Milford, MA) fitted with a cation exchange column (MD-150 3.2 × […] column; ESA Biosciences, Inc., Chelmsford, MA) using an isocratic mobile phase (MD-TM mobile phase; ESA Biosciences Inc.) containing 2.2 mM NaCl pumped at constant flow rate of 0.5 ml/min. Compounds were quantified by electrochemical detection using a glassy carbon working electrode (2 mm in diameter) with an in situ silver reference electrode (flow cell, 2 mm GC WE, ISAAC; Waters Corp.) ([Yochum et al., 2014]).
Fig. 9. […] Cells were analyzed for BH2 and BH4 as described in the Materials and Methods. […]

Data set [2] relates to BH4 formation in HaCaT cells. The data set is described as follows: BH4 formation from sepiapterin in intact HaCaT cells (HPLC). The following applies: intact HaCaT cells; auranofin 2 h, then 100 μM sepiapterin 3 h; read-out: IC50, inhibition of BH4 formation in intact HaCaT cells. The class given is cell-based, human. How it is done: as §1
Fig. 3. Effects of auranofin on BH2 and BH4 production in intact HaCaT cells treated with sepiapterin. HaCaT cells (~1 × 10^6 cells/well in 6 well culture plates) were incubated with control medium or medium containing increasing concentrations of auranofin for 2 h followed by 100 μM sepiapterin. After an additional 3 h, BH2 and BH4 were extracted from the cells and analyzed by HPLC with fluorescence detection. Left panel: Chromatograms showing BH2 and BH4 content of control cells and cells treated with Auranofin.
Fig. 6. […] Cells were treated with control medium or medium containing MTX (1 μM, 2 h), an inhibitor of DHFR, followed by 200 μM sepiapterin (upper panel) or BH2 (lower panel). After an additional 3 h incubation, cells were rinsed with PBS; BH2 and BH4 were then extracted and analyzed by HPLC as described in the Materials and Methods.

“Also recorded” adds a separate entry of the source. Read-outs that look alike come from different tables or passages of the source.

One may read the IC50 as the concentration that inhibits the measured activity by half. For `CC[PH](CC)(CC)[Au][S][C@@H]1O[C@H](COC(C)=O)[C@@H](OC(C)=O)[C@H](OC(C)=O)[C@H]1OC(C)=O` [auranofin, 2,3,4,6-tetra-O-acetyl-1-thio-β-D-glucopyranosato-S-triethyl phosphine gold], the “cell viability following drug treatments” value with cells is reported as “greater than 95%”. In addition, the IC50 amounted to 8.9 ± 0.64 µM on SPR (BeWo (human choriocarcinoma), with methotrexate, read-out: SPR IC50, BeWo cells); 25.1 ± 1.03 µM on SPR (CX-1 (human colon adenocarcinoma), with methotrexate, read-out: SPR IC50, CX-1 cells); 10.7 µM at SPR (HaCaT (human keratinocytes), with MTX 1 μM, auranofin 2 h, then 200 μM sepiapterin 3 h, listed as Auranofin, read-out: SPR IC50, HaCaT cells); 10.7 ± 0.9 µM at SPR (HaCaT (human keratinocytes), with MTX 1 μM, auranofin 2 h, then 200 μM sepiapterin 3 h, read-out: SPR IC50, HaCaT cells); 7.2 ± 0.17 µM on SPR (Jurkat (human leukemia), with methotrexate, read-out: SPR IC50, Jurkat cells); 17.7 ± 1.54 µM at SPR (SKNMC (human neuroblastoma), with methotrexate, read-out: SPR IC50, SKNMC cells). Further, the IC50 at DHFR came to 0.87 ± 0.09 µM; in data set [2] it was 7.9 µM. In addition, at SPR (HaCaT cells with methotrexate, 20 μM auranofin), the “time of pretreatment to maximum inhibition of cellular SPR” value amounted to 2 h. In addition, the “production of monoamines (serotonin, dopamine) and their metabolites (5HIAA, DOPAC, HVA)” value in data set [1] is “concentration-dependent inhibition; also recorded: significantly reduced”.
